Here are results for 14 molecules from US11608353B2, “Amylase inhibitor compounds, methods of their use and compositions thereof” (THE UNIVERSITY OF BRITISH COLUMBIA, priority 2016, dated 2023).

Changes are numbered by the printed parent chain. “And” between values parts separate entries of the source, which are not always exact repeats. Equal entries are not always repeated. Where two headings read alike, the source gives them in different places. Some results are limits rather than exact numbers.

The target of assay [1] is T1, human pancreatic α-amylase (HPA) (Homo sapiens, UniProt P04746).
T1 construct: made in house; host or cells: Pichia pastoris strain GM5011
T1 sequence (P04746 16-511): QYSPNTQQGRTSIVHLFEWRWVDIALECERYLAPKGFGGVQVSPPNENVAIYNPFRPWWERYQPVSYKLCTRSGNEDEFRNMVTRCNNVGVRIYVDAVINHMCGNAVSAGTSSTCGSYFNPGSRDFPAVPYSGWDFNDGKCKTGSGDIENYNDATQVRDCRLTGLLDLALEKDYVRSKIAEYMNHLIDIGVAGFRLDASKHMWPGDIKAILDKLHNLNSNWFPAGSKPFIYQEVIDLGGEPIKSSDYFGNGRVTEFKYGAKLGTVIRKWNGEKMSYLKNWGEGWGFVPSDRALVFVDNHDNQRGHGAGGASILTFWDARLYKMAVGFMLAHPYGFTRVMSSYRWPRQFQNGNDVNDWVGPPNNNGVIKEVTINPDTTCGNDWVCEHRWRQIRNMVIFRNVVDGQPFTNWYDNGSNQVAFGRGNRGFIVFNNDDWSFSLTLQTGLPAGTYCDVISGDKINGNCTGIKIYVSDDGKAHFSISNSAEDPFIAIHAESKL
Kind of assay: Inhibition of wild-type human pancreatic α-amylase (HPA), kinetic KI determination with CNP-G3. The format is biochemical.

For assay [2], the target named is Roseburia inulinivorans Amy A (Roseburia inulinivorans, UniProt A0ACG1Y5C3). Put plainly: Inhibition of gut bacterial amylase Roseburia inulinivorans Amy A. The format is biochemical. The settings on record: for Ki: GH family 13.
For assay [3], the target named is T2, Homo sapiens ntMGAM (Homo sapiens, UniProt O43451).
T2 construct: Homo sapiens ntMGAM
Put plainly: Inhibition of N-terminal domain of maltase glucoamylase. The format is biochemical. Conditions: for Ki: GH family 31.

The target of assay [4] is T3, H. sapiens ctMGAM (Homo sapiens, UniProt O43451).
T3 construct: H. sapiens ctMGAM
Kind of assay: Inhibition of C-terminal domain of maltase-glucoamylase. Conditions: for Ki: GH family 31. The format is biochemical.

The target of assay [5] is T4, H. sapiens ctSI (Homo sapiens, UniProt P14410).
T4 construct: H. sapiens ctSI
Kind of assay: Inhibition of C-terminal domain of sucrose-isomaltase. The format is biochemical.

For assay [6], the target named is T5, H299N HPA (Homo sapiens, UniProt P04746, H314N).
T5 construct: made in house; host or cells: Pichia pastoris strain GM5011
T5 sequence (P04746 16-511 H314N): T1 sequence (P04746 16-511) with H299N
Kind of assay: Inhibition of H299N variant HPA, kinetic KI determination. The format is biochemical. Conditions: variant used for co-crystallization; read-out: KI for inhibition of the H299N HPA variant enzyme. How it is done:
Kinetic Studies. The inhibition constants (KI) of montbretins A-E and MbA substructures for wild-type HPA, along with MbA for H299N HPA were determined by measuring the rates of reactions at different inhibitor and substrate concentrations. […] 2-Chloro-4-nitrophenyl α-D-maltotrioside (CNP-G3) was used as the substrate in a similar range of concentrations. Initial reaction rates for the release of chloronitrophenolate were measured and the further progress of substrate cleavage monitored continuously. Reactions were performed on a Varian Cary 4000 UV/Vis spectrophotometer at 400 nm and 30° C. Observed reaction rates were fitted directly to various inhibition models using GraFit version 5.0.13 and KI values were determined. Competitive inhibition provided the best fit in each case.

Assay [7] addresses Butyrivibrio fibrisolvens Amy B. Put plainly: Inhibition of gut bacterial amylase Butyrivibrio fibrisolvens Amy B. The format is biochemical.
In assay [8] the target is T1, human pancreatic α-amylase (HPA). The settings on record: literature value, reference (5); read-out: Ki, binds to HPA; cited from earlier work.
The subject of assay [9] is diabetic rat model. Conditions: McNeill, unpublished data; cited from earlier work.
[10] abbreviates: Tables 4 and 5, read-out: Ki (HPA Inhibition).
Where [11] appears, read: Table 6, GH family 13, mean ± s.d., read-out: Ki (nM), HPA.
[12] abbreviates: wild-type HPA, CNP-G3 substrate, pH 7.0, 30° C., competitive inhibition model, read-out: Ki of HPA.
Where [13] appears, read: tested at 100 μM, read-out: Ki With MbA-GRX.
[14] abbreviates: tested at 500 μM, read-out: Ki with MbA.

Chain of Roseburia inulinivorans Amy A (A0ACG1Y5C3 entry or part of it): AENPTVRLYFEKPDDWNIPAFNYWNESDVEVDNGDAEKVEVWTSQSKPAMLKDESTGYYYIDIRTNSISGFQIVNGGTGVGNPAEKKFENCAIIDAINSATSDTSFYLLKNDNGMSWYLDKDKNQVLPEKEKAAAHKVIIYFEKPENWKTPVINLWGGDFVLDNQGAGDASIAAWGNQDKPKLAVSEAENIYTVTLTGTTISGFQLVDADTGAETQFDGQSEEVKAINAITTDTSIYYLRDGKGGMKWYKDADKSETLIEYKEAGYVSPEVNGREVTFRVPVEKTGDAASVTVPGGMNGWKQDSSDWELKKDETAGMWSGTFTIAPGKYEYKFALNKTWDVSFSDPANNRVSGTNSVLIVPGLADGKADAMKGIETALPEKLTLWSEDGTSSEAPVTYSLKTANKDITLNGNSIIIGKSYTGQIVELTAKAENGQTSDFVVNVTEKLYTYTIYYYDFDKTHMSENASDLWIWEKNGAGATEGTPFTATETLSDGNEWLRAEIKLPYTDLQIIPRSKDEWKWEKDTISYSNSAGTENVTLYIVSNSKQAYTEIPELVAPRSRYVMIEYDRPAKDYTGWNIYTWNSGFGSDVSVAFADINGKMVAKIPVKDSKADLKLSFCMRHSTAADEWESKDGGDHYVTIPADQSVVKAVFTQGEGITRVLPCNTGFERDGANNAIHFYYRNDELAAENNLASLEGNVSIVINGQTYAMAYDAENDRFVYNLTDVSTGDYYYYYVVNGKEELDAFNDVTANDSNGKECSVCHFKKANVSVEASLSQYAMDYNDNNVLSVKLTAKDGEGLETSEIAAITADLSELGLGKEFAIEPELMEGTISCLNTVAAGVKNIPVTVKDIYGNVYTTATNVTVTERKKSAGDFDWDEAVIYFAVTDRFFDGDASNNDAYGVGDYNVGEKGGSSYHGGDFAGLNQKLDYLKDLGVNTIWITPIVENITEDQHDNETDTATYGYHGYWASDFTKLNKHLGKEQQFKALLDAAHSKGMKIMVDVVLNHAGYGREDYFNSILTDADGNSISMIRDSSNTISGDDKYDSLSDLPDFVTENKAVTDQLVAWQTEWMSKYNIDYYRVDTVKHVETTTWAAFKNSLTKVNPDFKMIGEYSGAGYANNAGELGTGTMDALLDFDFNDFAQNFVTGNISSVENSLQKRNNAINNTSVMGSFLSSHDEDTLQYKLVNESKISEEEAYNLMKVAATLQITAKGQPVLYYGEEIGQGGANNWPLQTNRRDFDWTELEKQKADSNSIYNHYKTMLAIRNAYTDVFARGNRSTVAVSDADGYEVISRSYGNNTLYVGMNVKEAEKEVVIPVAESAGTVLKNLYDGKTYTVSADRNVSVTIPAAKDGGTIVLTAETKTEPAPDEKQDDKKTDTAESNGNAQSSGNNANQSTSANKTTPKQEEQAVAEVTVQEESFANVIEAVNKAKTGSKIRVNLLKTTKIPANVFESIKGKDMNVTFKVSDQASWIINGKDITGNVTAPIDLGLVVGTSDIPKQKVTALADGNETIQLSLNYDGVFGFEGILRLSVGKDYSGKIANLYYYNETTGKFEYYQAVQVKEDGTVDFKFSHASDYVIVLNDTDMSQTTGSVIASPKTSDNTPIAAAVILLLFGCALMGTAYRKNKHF
T4 sequence (P14410 1008-1827 limits assumed): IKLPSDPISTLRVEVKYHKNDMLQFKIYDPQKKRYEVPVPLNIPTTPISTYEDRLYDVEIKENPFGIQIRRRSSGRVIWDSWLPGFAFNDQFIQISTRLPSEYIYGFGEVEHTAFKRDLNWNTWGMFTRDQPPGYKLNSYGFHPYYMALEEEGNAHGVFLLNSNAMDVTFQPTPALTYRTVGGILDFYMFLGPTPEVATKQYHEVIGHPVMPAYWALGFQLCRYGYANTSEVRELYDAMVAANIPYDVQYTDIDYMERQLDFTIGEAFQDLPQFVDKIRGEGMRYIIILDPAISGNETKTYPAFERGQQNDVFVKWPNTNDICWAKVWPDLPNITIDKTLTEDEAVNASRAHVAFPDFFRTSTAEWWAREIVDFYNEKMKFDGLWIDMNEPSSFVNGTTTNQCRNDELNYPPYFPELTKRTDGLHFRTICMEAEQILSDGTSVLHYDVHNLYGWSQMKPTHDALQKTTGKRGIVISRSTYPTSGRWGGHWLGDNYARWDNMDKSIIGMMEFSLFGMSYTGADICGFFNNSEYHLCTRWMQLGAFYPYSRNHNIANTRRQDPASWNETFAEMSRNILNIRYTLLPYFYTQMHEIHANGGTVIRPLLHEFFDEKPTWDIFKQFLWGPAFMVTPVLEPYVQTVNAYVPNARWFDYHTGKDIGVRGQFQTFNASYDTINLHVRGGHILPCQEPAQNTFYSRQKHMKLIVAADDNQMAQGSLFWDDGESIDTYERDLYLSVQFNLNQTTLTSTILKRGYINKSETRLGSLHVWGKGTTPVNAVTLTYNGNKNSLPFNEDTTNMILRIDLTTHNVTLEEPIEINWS
T3 sequence (O43451 1221-1632 limits assumed): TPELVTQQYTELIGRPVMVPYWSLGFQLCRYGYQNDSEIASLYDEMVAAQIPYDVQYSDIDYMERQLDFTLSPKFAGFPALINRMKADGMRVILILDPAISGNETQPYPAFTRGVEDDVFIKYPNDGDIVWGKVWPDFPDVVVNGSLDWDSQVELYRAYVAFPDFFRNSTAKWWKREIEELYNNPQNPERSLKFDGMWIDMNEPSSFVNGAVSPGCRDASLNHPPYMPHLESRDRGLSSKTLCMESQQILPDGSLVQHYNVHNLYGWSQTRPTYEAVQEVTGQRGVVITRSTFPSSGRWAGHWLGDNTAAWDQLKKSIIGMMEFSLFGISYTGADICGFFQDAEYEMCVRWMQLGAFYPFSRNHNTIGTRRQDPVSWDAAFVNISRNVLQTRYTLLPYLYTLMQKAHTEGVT
T2 sequence (O43451 356-737 limits assumed): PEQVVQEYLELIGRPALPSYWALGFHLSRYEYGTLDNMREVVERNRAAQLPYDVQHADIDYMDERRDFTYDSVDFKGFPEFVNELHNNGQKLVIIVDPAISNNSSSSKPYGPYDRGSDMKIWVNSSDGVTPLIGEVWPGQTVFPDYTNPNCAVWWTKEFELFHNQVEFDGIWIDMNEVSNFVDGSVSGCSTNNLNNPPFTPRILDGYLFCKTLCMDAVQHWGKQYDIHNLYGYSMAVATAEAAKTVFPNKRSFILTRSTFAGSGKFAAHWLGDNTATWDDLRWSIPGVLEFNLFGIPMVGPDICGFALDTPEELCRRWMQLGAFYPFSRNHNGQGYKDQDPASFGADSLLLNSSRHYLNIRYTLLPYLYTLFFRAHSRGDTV

In general, Ki refers to a dissociation constant, usually derived from enzyme kinetics or from competition with a known ligand. For `O=C(/C=C/c1ccc(O)c(O)c1)NC[C@H]1O[C@@H](O[C@H]2[C@H](O)[C@@H](O)[C@H](Oc3c(-c4ccc(O)c(O)c4)oc4cc(O)cc(O)c4c3=O)O[C@@H]2CO)[C@H](O)[C@@H](O)[C@@H]1O` [11 (6-aminoGlc)], the inhibition constant Ki in assay [1] (setting [10]) turned out to be 70000 nM.
Consider `O=C(/C=C/c1ccc(O)c(O)c1)N[C@@H]1[C@H](O)[C@@H](O)[C@H](O[C@H]2[C@H](O)[C@@H](O)[C@H](Oc3c(-c4ccc(O)c(O)c4)oc4cc(O)cc(O)c4c3=O)O[C@@H]2CO)O[C@@H]1CO` [12 (4-aminoGal)], for which, in [1] (setting [10]), the inhibition constant Ki was 45000 nM.
On the same count and under the same terms, the same measure for `O=C(/C=C/c1ccc(O)c(O)c1)NCCOCCOCCOc1c(-c2ccc(O)c(O)c2)oc2cc(O)cc(O)c2c1=O` [Compound 02]: 82000 nM; for `O=C(/C=C/c1ccc(O)c(O)c1)NCCCOc1c(-c2ccc(O)c(O)c2)oc2cc(O)cc(O)c2c1=O` [Compound 03]: 145000 nM.
With `O=C(/C=C/c1ccc(O)c(O)c1)NCCCCCCCOc1c(-c2ccc(O)c(O)c2)oc2cc(O)cc(O)c2c1=O` [Compound 05], the Ki in [1] (setting [10]) was 4000 nM.
The IC50 is the concentration needed to halve the response being measured. Low values mean greater potency, high ones weaker potency. Regarding `CC1O[C@@H](Oc2c(-c3cc(O)c(O)c(O)c3)oc3cc(O)cc(O)c3c2=O)C(O[C@@H]2OC(COC(=O)/C=C/c3ccc(O)c(O)c3)[C@@H](O)[C@@H](O)C2O)[C@@H](O)[C@H]1O` (stereo partly drawn) [MbA-1GRX], the Ki in [1] (setting [11]) was 93.3 ± 7.6 nM; in assay [1] (setting [12]) it was 93 nM and 93.3 nM; in assay [2] (setting [13]), greater than 100000 nM; in [3] (setting [13]), greater than 100000 nM; in [4] (setting [13]), greater than 100000 nM. In addition, the “poorer at binding to the active site of HPA than the full structure of MbA” value in assay [1] (relative to MbA (KI=4.4 nM)) is roughly 25 ×. Besides, the “inhibition of maltase-glucoamylase (in words)” value in assay [3] (MbA-GRX) and in [4] (MbA-GRX) was “No inhibition” in each case. Besides, the midpoint of inhibition in assay [5], the IC50, lay at 75500 nM.
Consider `CC1O[C@@H](Oc2c(-c3cc(O)c(O[C@@H]4OC[C@@H](O)C(O)C4O)c(O)c3)oc3cc(O)cc(O)c3c2=O)C(O[C@@H]2OC(COC(=O)/C=C/c3ccc(O)c(O)c3)[C@@H](O)C(O)C2O)C(O)[C@H]1O` (stereo partly drawn) [MbA-1GR], for which the Ki in assay [1] (setting [12]) is 79 nM and 79.3 nM.
For `CC1O[C@@H](Oc2c(-c3cc(O)c(O)c(O)c3)oc3cc(O)cc(O)c3c2=O)C(O[C@@H]2OC(COC(=O)/C=C/c3ccc(O)c(O)c3)[C@@H](O)[C@@H](O)C2O[C@@H]2OC(CO)[C@@H](O)[C@@H](O)C2O)[C@@H](O)[C@H]1O` (stereo partly drawn) [MbA-RX], in assay [1] (setting [12]), the Ki is 43 nM and 42.4 nM.
As for Montbretin D [MbD], the “inhibitory activity against HPA (in words)” value in [1] was “poor inhibitory activity”.
Take Montbretin E [MbE]: in [1], the “inhibitory activity against HPA (in words)” value is “poor inhibitory activity”.
Take Quercetin/Myricetin: in assay [1] (setting [10]), the Ki was 100000 nM.
Regarding montbretin A [MbA], the Ki in assay [1] (setting [11]) is 8.1 nM; in assay [1] (setting [10]), 8 nM; in assay [1] (setting [12]), 4.4 nM; in assay [6], 124 nM; in assay [2] (setting [14]), greater than 500000 nM; in assay [7], 1600 nM. In addition, the inhibitory constant (Ki) in [3] (setting [14]) is greater than 500000 nM; in assay [4] (setting [14]) it was greater than 500000 nM; in assay [5] (GH family 31, tested at 500 μM, read-out: Ki with MbA), greater than 500000 nM; in assay [8], 8 nM. In addition, the “inhibition of gut bacterial amylase (in words)” value in [2] is on record as “not inhibited at all”. The “inhibition of human maltase-glucoamylase (MGAM) (in words)” value in [3] (concentrations up to 500 μM) and in assay [4] (concentrations up to 500 μM) was “Neither the human maltase-glucoamylase (MGAM) nor the human sucrose isomaltase (SI) was inhibited” each time. Also, the “inhibition of human sucrose isomaltase (SI) (in words)” value in [5] (concentrations up to 500 μM) is reported as “Neither the human maltase-glucoamylase (MGAM) nor the human sucrose isomaltase (SI) was inhibited”. For the same molecule, the “reducing postprandial glucose spiking and delaying the onset of diabetes” value in assay [9] is reported as “superior to other inhibitors”.
Regarding montbretin B [MbB], the “decrease in inhibitory activity” value in [1] (relative to MbA, reference (5)) is recorded as roughly 1000 ×.
For the molecule montbretin C [MbC], the “lower inhibition for HPA than MbB” value in assay [1] (relative to MbB) was 2 ×.
